Source: paper PMC10819019 (Pharmaceutics, 2024)

assay: Metabolite profiling in rat liver microsomes; type: in vitro ADME; conditions: microsomal incubation with 5-hydroxysaxagliptin in the presence of L-cysteine
Method: L-cysteine (100 mM), glutathione (2.5 mM), or UDPGA (5 mM) was added after pre-incubation with or without 100 mM L-cysteine at 37 °C for 5 min to an NADPH-generating system (1.3 mM of NADP^+, 3.3 mM of G6P, 1 unit/mL of G6PDH, and 3.3 mM of MgCl2) to initiate the microsomal reaction. The reaction was stopped by adding cold acetonitrile after microsomal incubation for 2 h.
In the presence of L-cysteine (100 mM) or glutathione (100 mM) in phosphate buffer (100 mM, pH of 7.4), 5-Hydroxysaxagliptin (100 μM) was incubated at 37 °C for 2 h. The supernatants were analyzed using high-resolution Orbitrap MS after incubation reaction termination and centrifugation.

| Metabolite detection in incubate of 5-hydroxysaxagliptin with L-cysteine | Compound |
| --- | --- |
| detected | NC(C(=O)N1C(C2=NC(C(=O)O)CS2)CC2CC21)C12CC3CC(O)(CC(O)(C3)C1)C2 (stereo not shown) [Metabolite M4, 5-Hydroxysaxagliptin–cysteine conjugate] |

same assay, conditions: saxagliptin 100 μM, RLM 1 mg/mL, NADPH-generating system and/or L-cysteine, 2 h

| Compound | Metabolite detection in incubates of saxagliptin |
| --- | --- |
| N=C1NC(C23CC4CC(CC(O)(C4)C2)C3)N2C1CC1CC12 (stereo not shown) [Metabolite M1, Saxagliptin cyclic amidine] | found in the incubation sample of saxagliptin with buffer solution (Figure 5a) and RLM (Figure 5c) in the presence of +L-cysteine |
| NC(C(=O)N1C(C2=NC(C(=O)O)CS2)CC2CC21)C12CC3CC(CC(O)(C3)C1)C2 (stereo not shown) [Metabolite M3, Saxagliptin–cysteine conjugate] | formed in an enzyme-nonspecific manner |
| N#CC1CC2CC2N1C(=O)C(N)C12CC3CC(O)(CC(O)(C3)C1)C2 (stereo not shown) [Metabolite M2, 5-Hydroxysaxagliptin] | observed in rat liver microsomal incubation samples regardless of the addition of L-cysteine |

assay: not given; conditions: cited from earlier work

| Compound | Stability on incubation with L-cysteine |
| --- | --- |
| N[C@@H](CC(=O)N1CCn2c(nnc2C(F)(F)F)C1)Cc1cc(F)c(F)cc1F [sitagliptin] | stable |
| Cc1cc2ncc(C(=O)NCC(C)(C)NCC(=O)N3CCC[C@H]3C#N)cn2n1 [anagliptin] | unstable |
| CC#CCn1c(N2CCC[C@@H](N)C2)nc2c1c(=O)n(Cc1nc(C)c3ccccc3n1)c(=O)n2C [linagliptin] | stable |
| Cn1c(=O)cc(N2CCC[C@@H](N)C2)n(Cc2ccccc2C#N)c1=O [alogliptin] | stable |

assay: Metabolite profiling in rats (bile, plasma, liver); type: in vivo, male Sprague–Dawley rats; conditions: saxagliptin 100 mg/kg intraperitoneal injection, samples up to 4 h
Description: Male Sprague–Dawley (SD) rats (7 weeks old, 200–225 g) were purchased from SamTako Co. (Osan, Republic of Korea). The animals were acclimatized for one week in an animal facility at the College of Pharmacy, Kyungpook National University (Daegu, Republic of Korea). The Kyungpook National University Animal Care and Use Committee (KNU 2021-0120, 12 July 2021) approved the study protocol, conducted under the National Institutes of Health guidance for the care and use of laboratory animals. […] The bile duct was cannulated with polyethylene tubes (PE-10, Jungdo, Seoul, Republic of Korea) under isoflurane anesthesia (isoflurane vaporizer to 2% with oxygen flow at 0.8 L/min). […] Bile samples were then collected for 4 h. […] The liver tissues were immediately excised, gently washed with ice-cold saline-soaked wet tissue to remove the contaminated blood, and homogenized with 4 volumes of saline. Aliquots of plasma, bile, and 20% liver homogenates were stored at −80 °C until the analysis.
The liver homogenates were vortexed with the same volume of methanol/acetonitrile mixtures (1/1, v/v) and centrifuged (13,500× g, 10 min). The remaining pellets were reextracted twice, and pooled supernatants were dried and reconstituted with 50% methanol in water (100 μL) for LC-MS/MS analysis. Protein concentrations in the pellets were determined using a Bradford protein assay kit (Bio-Rad Laboratories, Hercules, CA, USA) with bovine serum albumin as a standard. The rat bile and plasma (200 μL) samples were vortexed with the same methanol/acetonitrile mixture volume (1/1, v/v). The mixture was centrifuged after vortexing, and the supernatants were dried to complete dryness and reconstituted with 50% methanol in water (100 μL) for LC-MS/MS analysis. The contents of biliverdin in the bile samples were analyzed by measuring ultraviolet absorbance at 380 nm using a microplate reader (Infinite M200 PRO, TECAN, Mannedorf, Switzerland) after 10-fold dilution with 50% methanol.

| Metabolite detection in rat bile, plasma and liver tissues | Compound |
| --- | --- |
| only found in rat bile | N#CC1CC2CC2N1C(=O)C(N)C12CC3CC(CC(OS(=O)(=O)O)(C3)C1)C2 (stereo not shown) [Metabolite M7, Saxagliptin-O-sulfate] |
| observed in rats | NC(C(=O)N1C(C2=NC(C(=O)O)CS2)CC2CC21)C12CC3CC(CC(O)(C3)C1)C2 (stereo not shown) [Metabolite M3, Saxagliptin–cysteine conjugate] |
| observed in rats | NC(C(=O)N1C(C2=NC(C(=O)NCC(=O)O)CS2)CC2CC21)C12CC3CC(O)(CC(O)(C3)C1)C2 (stereo not shown) [Metabolite M6, 5-Hydroxysaxagliptin–cysteinylglycine conjugate] |

| Compound | Metabolite detection in rat bile, plasma and liver tissues |
| --- | --- |
| N#CC1CC2CC2N1C(=O)C(N)C12CC3CC(CC(OC4OC(C(=O)O)C(O)C(O)C4O)(C3)C1)C2 (stereo not shown) [Metabolite M8, Saxagliptin-O-glucuronide] | observed in rat bile, plasma, and liver tissues |
| NC(C(=O)N1C(C2=NC(C(=O)NCC(=O)O)CS2)CC2CC21)C12CC3CC(CC(O)(C3)C1)C2 (stereo not shown) [Metabolite M5, Saxagliptin–cysteinylglycine conjugate] | found in rat bile, plasma, and liver tissues |
